Test systems include SK-MEL-2; SW-620; SNB-19; OVCAR-5; MDA-MB-435; HCT-116; A549; RPMI-8226; SNB-75; K562; HCT-15; SF-539; T47D; SK-MEL-5; KM12; Hs-578T; NCI-H226; HCC 2998; BT-549; RXF 393.
Holding throughout (experiment): DTP human tumour cell line panel, 48 h

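These data come from cells grown in 96-well plates and exposed to compound for 48 hours at five concentrations. Here, GI50 denotes the concentration required for 50% inhibition of growth.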 Active and inactive are the calls of the source. Cut-off read from the data, not from the text of the source: active = GI50 up to about 1.1 µM and inactive = higher. Where only a bound is given, the exact number is not on record here.

As usually defined, the GI50 is the concentration giving 50% growth inhibition.

Regarding `CCNC(=S)NNC(=O)C12CC3CC(CC(C3)C1)C2`, the GI50 in the test on SK-MEL-2, in the test with SW-620, with SNB-19, in the test with OVCAR-5, in the test with MDA-MB-435 and in the test with HCT-116 was > 100 µM (inactive) throughout. In addition, the GI50 in the test on A549 was > 100 µM (inactive); with RPMI-8226, > 100 µM (inactive); in the test on SNB-75 it was 64.1 µM (inactive); in the test on K562, > 100 µM (inactive); in the test on HCT-15 it was > 100 µM; in the test on SF-539, > 100 µM (inactive). In addition, the GI50 in the test with T47D, in the test on SK-MEL-5, with KM12, in the test with Hs-578T, with NCI-H226 and in the test on HCC 2998 was > 100 µM (inactive) throughout. For the same compound, the GI50 in the test with BT-549 and in the test on RXF 393 was > 100 µM (inactive) each time.

Values taken from ChEMBL document CHEMBL1201862, “PubChem BioAssay data set” (2004).
